Assays:
[1] = tested on: TNF; assay: LPS-induced TNF release in human peripheral blood mononuclear cells (ELISA); type: cell-based; settings: 100 μM, FIG. 2B lower panel
Description: (§1) Cell culture. Murine macrophage-like RAW 264.7 cells were obtained from the American Type Culture Collection (ATCC, Rockville, Md.), and primary peritoneal macrophages were isolated from Balb/C mice (male, 7-8 weeks, 20-25 grams) at 2-3 days after intraperitoneal injection of 2 ml thioglycollate broth (4%) as previously described (Chen et al. 2004; Rendon-Mitchell et al. 2003). Murine macrophages were pre-cultured in RPMI 1640 medium (Gibco BRL, Grand Island, N.Y.) supplemented with 10% fetal bovine serum (FBS) and 2 mmol/L glutamine. […]
(§2) LPS stimulation. […] At 16 hours after LPS stimulation, levels of HMGB1 in the culture medium were determined as previously described (Chen et al. 2004; Rendon-Mitchell et al. 2003; Wang et al. 1999).
(§3) TNF ELISA. The levels of TNF in the culture medium or serum were determined using commercial enzyme linked immunosorbent assay (ELISA) kits (Catalog no. MTA00, R & D Systems, Minneapolis, Minn.) with reference to standard curves of purified recombinant TNF at various dilutions as previously described (Chen et al. 2004; Rendon-Mitchell et al. 2003; Wang et al. 2006).

[2] = tested on: lethal endotoxemia; assay: Lethal endotoxemia in Balb/C mice (LPS 15 mg/kg i.p.); type: in vivo
Description: (§4) Animal models of endotoxemia and sepsis. This study was approved and performed in accordance with the guidelines for the care and use of laboratory animals at the Feinstein Institute for Medical Research, Manhasset, N.Y. Endotoxemia was induced in Balb/C mice (male, 7-8 weeks) by intraperitoneal injection of bacterial endotoxin (LPS, 15 mg/kg) as previously described (Chen et al. 2005; Wang et al. 1999; Wang et al. 2006). Sepsis was induced in male Balb/C mice (7-8 weeks, 20-25 g) or Sprague-Dawley rats (290-310 g) by cecal ligation and puncture (CLP) as previously described (Wang et al. 2006; Yang et al. 2002b). Herbal components were administered intraperitoneally into mice at indicated doses and time points, and mice were monitored for survival for up to two weeks. In parallel experiments, mice were euthanized to collect blood at 28 h (following two doses of herbal components at −0.5 and +24 h) after endotoxemia, and at 52 h (following two doses of herbal components at +24 and +48 h) after CLP.
(§5) HMGB1 western blotting analysis. The levels of HMGB1 in the culture medium or serum were determined by western blotting analysis as previously described (Chen et al. 2004; Rendon-Mitchell et al. 2003; Wang et al. 1999). The relative band intensity was quantified using NIH image 1.59 software to determine HMGB1 levels with reference to standard curves generated with purified HMGB1.

[3] = tested on: HMGB1; assay: LPS-induced HMGB1 release in murine peritoneal macrophages; type: cell-based; settings: data not shown
Description: as §1, §2, §5

[4] = tested on: HMGB1; assay: Endotoxin-induced HMGB1 cytoplasmic translocation (immunocytochemistry, cell fractionation/western blot); type: cell-based, murine
Description: Immunocytochemistry and cell fractionation/western blot. At 16 h after LPS stimulation, cellular HMGB1 was immunostained with anti-HMGB1 polyclonal antibodies, and images were acquired using fluorescent microscope (Carl Zeiss Microimaging, Inc., Thomwood, N.Y.) as previously described (Chen et al. 2004; Rendon-Mitchell et al. 2003). Alternatively, localization of HMGB1 was examined by a cell fractionation/western blotting technique as previously described (Tang et al. 2006). Cell fractionation is based on differential lysis of plasma and nuclear membranes by nonionic detergent (NP-40). Briefly, after selective lysis of the plasma membrane in low salt buffer (10 mM HEPES, pH 7.9; 10 mM KCl; 0.1 mM EDTA; 0.1 mM EGTA; 1 mM DTT; 0.5 mM PMSF, 1% NP-40), the intact nuclei was collected by a quick centrifugation step (7,000 g, 1 min, 4° C.), leaving the cytoplasmic fraction in the supernatant. The nuclei pellet was resuspended in NP-40 high salt buffer (20 mM HEPES, pH 7.9; 0.4 M NaCl; 1 mM EDTA; 1 mM EGTA; 1 mM DTT; 1 mM PMSF, 1% NP-40), and briefly sonicated to generate the nuclear fraction. After fractionation, the protein content of different fractions was determined by the Bradford method, and each fraction was assayed for levels of various protein by western blotting analysis using primary antibodies specific for HMGB1, a cytoplasmic protein (βactin, Santa Cruz Biotechnology), and a nuclear protein (PCNA, BD Biosciences).

[5] = tested on: nitric oxide; assay: LPS-induced nitric oxide release (Griess reaction); type: cell-based, murine; settings: 100 μM, FIG. 2A lower panel
Description: LPS stimulation. Adherent macrophages or monocytes were gently washed with, and cultured in, serum-free OPTI-MEM I medium two hours before stimulation with bacterial endotoxin (lipopolysaccharide, LPS, E. coli 0111:B4, Sigma-Aldrich). At 16 hours after LPS stimulation, levels of HMGB1 in the culture medium were determined as previously described (Chen et al. 2004; Rendon-Mitchell et al. 2003; Wang et al. 1999).
(§6) Nitric oxide assay. The levels of nitric oxide in the culture medium were determined indirectly by measuring NO^2− production with a colorimetric assay based on the Griess reaction (Rendon-Mitchell et al. 2003). NO2-concentrations were determined with reference to a standard curve generated with sodium nitrite at various dilutions.

[6] = tested on: lethal sepsis; assay: Lethal sepsis induced by cecal ligation and puncture (CLP) in Balb/C mice; type: in vivo
Description: as §4, §3, §6, §5
Tissue histology. At 48 hours after CLP, mice were euthanized in CO2 Chamber, and immediately perfused (transcardially) with phosphate buffer saline and 4% paraformaldehyde. Various tissues were harvested, sectioned, and stained with hematoxylin and eosin for morphology evaluation.

Compound: Cc1c(S(=O)(=O)[O-])oc2c1C(=O)C(=O)c1c-2ccc2c1CCCC2(C)C.[Na+] [TSNIIA-SS, tanshinone IIA sodium sulfonate]
- effect on LPS-induced release of TNF [1]: did not completely block
- circulating HMGB1 levels, endotoxemia ([2]; LPS+vehicle 140±20 ng/ml, n=10, p<0.01): 40 ± 25 ng/mL
- animal survival, lethal endotoxemia ([2]; repeated doses (+0.5, +24, +48, 72 hr), dose-dependent, control 20%, FIG. 6A): 80%
- animal survival rate, lethal endotoxemia ([2]; single dose 15 mg/kg 30 minutes after LPS, saline control 25%, P>0.05): 37.5%
- effect on LPS-induced HMGB1 release [3]: effectively inhibited
- levels of HMGB1 in the cytoplasmic fractions after LPS ([4]; cell fractionation/western blot, FIG. 4B): dramatically reduced
- effect on LPS-induced HMGB1 cytoplasmic translocation ([4]; immunostaining 16 h post LPS, 100 μM, FIG. 4A): almost completely abrogated
- effect on nuclear localization of HMGB1 in resting cells ([4]; resting cells, data not shown): did not affect
- effect on LPS-induced release of nitric oxide [5]: did not completely block
- signs of hepatic necrosis ([6]; 15 mg/kg, histology 48 hours post onset of sepsis, control 2 out of 12 survivors): not observed in any of the 15 survivors
- circulating nitric oxide levels ([6]; 52 h after the onset of sepsis, vehicle 18.0±4.5 μmol/L, n=3, P>0.05): 15.5 ± 3.3 µmol/L
- circulating TNF levels ([6]; 52 h after the onset of sepsis, vehicle 65+15 ng/L, P>0.05): 85+23 ng/L
- animal survival rate, lethal sepsis ([6]; repeated administration at 24, 48, 72, 96 hours post sepsis, control 33%, P<0.05): 73%
- circulating HMGB1 levels in septic mice ([6]; repeated administration, 52 h post CLP, FIG. 7A, P<0.05): dose-dependently, and significantly attenuated
- survival rate, lethal sepsis ([6]; single i.p. dose 15 mg/kg 24 h after onset of sepsis, saline control 33%, P>0.05): 50%
